The subject of this assay is Ramos cells. The assay can be described thus: Cytotoxicity in Ramos cells (cell death). Format: cell-based. Here is the method: The compounds listed in Table 7 were tested for cytotoxicity in Ramos cells. The assay was conducted as described in K. M. Johnson et al. Chemistry & Biology 2005, 12, 485-496.

The structures appear in SMILES notation. Where only a bound is given, the exact number is not on record here.

One may read the EC50 as the concentration needed to bring the measured effect to its halfway point. Take `O=C(N=C(Nc1cccc(Cl)c1)Nc1ccc2[nH]ncc2c1)c1ccc(C(F)(F)F)cc1` [II-20]: the EC50 was less than 10 µM.
Under `Cn1c(=O)oc2cc(NC(=NC(=O)c3ccc(C(F)(F)F)cc3)Nc3ccccc3C(C)(C)C)ccc21` [Compound I-134] stands more than 10 µM; under `O=C(N=C(Nc1ccc(-c2ccccc2)cc1)Nc1ccc2[nH]c(=O)oc2c1)c1ccc(Br)cc1` [Compound I-29], less than 10 µM.
As for `O=C(N=C(Nc1ccc(-c2ccccc2)cc1)Nc1ccc2[nH]c(=O)[nH]c2c1)c1ccc(Br)cc1` [Compound I-13], the figure is more than 10 µM; as for `O=C(N=C(Nc1ccc2ccccc2c1)Nc1ccc2[nH]c(=O)oc2c1)c1ccc(Br)cc1` [Compound I-25], less than 10 µM; as for `CC(C)(C)c1ccccc1NC(=NC(=O)c1ccc(Br)cc1)Nc1ccc2[nH]c(=O)oc2c1` [Compound I-21], less than 10 µM.
Under `O=C(N=C(Nc1ccc2[nH]c(=O)oc2c1)Nc1ccccc1C(F)(F)F)c1ccc(F)cc1` [Compound I-20] stands more than 10 µM; under `O=C(N=C(NCCc1c[nH]cn1)Nc1ccc2ccccc2c1)c1ccc(Br)cc1` [III-8], less than 10 µM.
`CC(C)(C)c1ccccc1NC(=NC(=O)c1ccc(F)cc1)Nc1ccc2[nH]c(=O)oc2c1` [Compound I-24] came in with a half-maximal effective concentration (EC50) of less than 10 µM.
Compound `O=C(N=C(NCCc1c[nH]cn1)Nc1ccc2ccccc2c1)c1ccc(F)cc1` [III-11] registered an EC50 of more than 10 µM.
Under `O=C(N=C(Nc1ccc(Cl)cc1)Nc1ccc2[nH]c(=O)oc2c1)c1ccc(Cl)cc1` [Compound I-90] stands more than 10 µM; under `N#Cc1ccc(C(=O)N=C(Nc2cccc(C(F)(F)F)c2)Nc2ccc3[nH]c(=O)oc3c2)cc1` [Compound I-105], more than 10 µM.
Under `O=C(N=C(NCCc1c[nH]cn1)Nc1ccc2ccccc2c1)c1cccc(Cl)c1` [III-10] stands less than 10 µM.
As for `O=C(N=C(Nc1ccc2[nH]c(=O)oc2c1)Nc1ccccc1Cl)c1ccc(C(F)(F)F)cc1` [Compound I-93], the figure is less than 10 µM.
Regarding `N#Cc1cccc(C(=O)N=C(Nc2ccc3[nH]c(=O)oc3c2)Nc2ccccc2C2CC2)c1` [Compound I-112], the EC50 is less than 10 µM.
Under `N#Cc1cccc(C(=O)N=C(Nc2ccc(C3CC3)cc2)Nc2ccc3[nH]c(=O)oc3c2)c1` [Compound I-138] stands less than 10 µM; under `CC(C)(C)c1ccccc1NC(=NC(=O)c1cccc(C#N)c1)Nc1ccc2oc(=O)[nH]c2c1` [Compound I-130], more than 10 µM; under `CC(C)(C)c1ccccc1NC(=NC(=O)c1ccc(C(F)(F)F)cc1)Nc1ccc2[nH]ncc2c1` [II-18], less than 10 µM.
Under `CC(C)(C)c1ccccc1NC(=NC(=O)c1ccc(C(F)(F)F)c(F)c1)Nc1ccc2[nH]c(=O)oc2c1` [Compound I-106] stands less than 10 µM; under `O=C(N=C(Nc1ccc2[nH]c(=O)oc2c1)Nc1ccccc1C(F)(F)F)c1ccc(C(F)(F)F)cc1` [Compound I-92], less than 10 µM; under `O=C(N=C(Nc1ccc(-c2ccccc2)cc1)Nc1ccc2[nH]c(=O)oc2c1)c1ccc(Cl)cc1` [Compound I-30], less than 10 µM.
In turn, `O=C(N=C(Nc1ccc2[nH]c(=O)[nH]c2c1)Nc1ccccc1C(F)(F)F)c1cccc(Cl)c1` [Compound I-3] yielded an EC50 of more than 10 µM.
Under `N#Cc1cccc(C(=O)N=C(Nc2cccc(C(F)(F)F)c2)Nc2ccc3oc(=O)[nH]c3c2)c1` [Compound I-133] stands more than 10 µM; under `O=C(N=C(Nc1cccc(C(F)(F)F)c1)Nc1ccc2[nH]c(=O)oc2c1)c1ccc(C(F)(F)F)cc1` [Compound I-85], less than 10 µM.
As for `CC(C)(C)c1ccccc1NC(=NC(=O)c1ccc(Br)cc1)Nc1ccc2[nH]ncc2c1` [II-5], the figure is less than 10 µM; as for `O=C(N=C(Nc1ccc(-c2ccccc2)cc1)Nc1ccc2[nH]ncc2c1)c1cccc(Cl)c1` [II-15], less than 10 µM.
Under `O=C(N=C(Nc1cccc(Cl)c1)Nc1ccc2[nH]c(=O)oc2c1)c1ccc(Cl)cc1` [Compound I-91] stands less than 10 µM; under `CC(C)(C)c1ccccc1NC(=NC(=O)c1ccc(C(F)(F)F)cc1)Nc1ccc2[nH]c(=O)oc2c1` [Compound I-86], less than 10 µM; under `O=C(N=C(Nc1ccc2[nH]ncc2c1)Nc1ccccc1C(F)(F)F)c1ccc(Cl)cc1` [II-2], less than 10 µM.
Consider `O=C(N=C(Nc1ccc(-c2ccccc2)cc1)Nc1ccc2[nH]c(=O)[nH]c2c1)c1ccc(Cl)cc1` [Compound I-14], for which the EC50 is more than 10 µM.
Under `CC(C)(C)c1ccc(NC(=NC(=O)c2cccc(C#N)c2)Nc2ccc3[nH]c(=O)oc3c2)cc1` [Compound I-119] stands less than 10 µM; under `CC(C)(C)c1ccccc1NC(=NC(=O)c1cccc(Cl)c1)Nc1ccc2[nH]ncc2c1` [II-7], less than 10 µM.
As to `O=C(N=C(Nc1ccc2[nH]ncc2c1)Nc1ccccc1C(F)(F)F)c1cccc(Cl)c1` [II-3], the EC50 was less than 10 µM.
As for `N#Cc1cccc(C(=O)N=C(Nc2cccc(Cl)c2)Nc2ccc3[nH]c(=O)oc3c2)c1` [Compound I-114], the figure is less than 10 µM; as for `O=C(N=C(Nc1cccc(Cl)c1)Nc1ccc2[nH]ncc2c1)c1ccc(Cl)cc1` [II-23], less than 10 µM.
`O=C(N=C(Nc1ccc(Cl)cc1)Nc1ccc2[nH]c(=O)oc2c1)c1ccc(C(F)(F)F)cc1` [Compound I-87] showed an EC50 of less than 10 µM.
As for `O=C(N=C(NCCc1c[nH]cn1)Nc1ccccc1C(F)(F)F)c1ccc(Br)cc1` [III-1], the figure is more than 10 µM; as for `CC(C)(C)c1ccccc1NC(=NC(=O)c1ccc(Cl)cc1)Nc1ccc2[nH]ncc2c1` [II-6], less than 10 µM.
Under `O=C(N=C(Nc1ccc2[nH]c(=O)oc2c1)Nc1ccc(Cl)cc1F)c1cccc(C(F)(F)F)c1` [Compound I-99] stands more than 10 µM; under `O=C(N=C(Nc1ccc2[nH]c(=O)[nH]c2c1)Nc1ccccc1C(F)(F)F)c1ccc(Cl)cc1` [Compound I-2], more than 10 µM.
`O=C(N=C(Nc1ccc2ccccc2c1)Nc1ccc2[nH]c(=O)[nH]c2c1)c1ccc(Cl)cc1` [Compound I-10] showed an EC50 of more than 10 µM.
Under `O=C(N=C(Nc1cc(Cl)cc(Cl)c1)Nc1ccc2[nH]c(=O)oc2c1)c1ccc(C(F)(F)F)cc1` [Compound I-125] stands less than 10 µM.
As for `O=C(N=C(Nc1ccc2[nH]ncc2c1)Nc1ccccc1C(F)(F)F)c1ccc(F)cc1` [II-4], the figure is less than 10 µM; as for `CC(C)(C)c1ccccc1NC(=NC(=O)c1ccc(F)c(F)c1)Nc1ccc2[nH]c(=O)oc2c1` [Compound I-98], less than 10 µM.

Source of the values: US8497307B2, “Aryl guanidine F1F0-ATPase inhibitors and related methods” (The Regents of the University of Michigan, priority 2008, dated 2013).
